Test results from EP0711545B1, “Aqueous mild surfactants containing preparations for cosmetic and cleaning use” (priority 1994, dated 1996).

System: Rote Blutkörperchen
Experiment: Red blood cell test (RBC test): lysis of blood cells and denaturation of released haemoglobin
Assay type: cell-based
Source text: Fettsäureamidopropylbetaine, abgeleitet von Fettsäuren unterschiedlicher Kettenlängen, werden mit Hilfe einer in-vitro-Methode, dem Rote-Blutkörperchen-Test (RBC), auf ihre physiologische Verträglichkeit untersucht.
Hierbei werden zur Charakterisierung der typischen irritativen Wechselbeziehung von Tensiden mit intakten Zellstrukturen die Zerstörung der Blutzellen durch Lyse und die Denaturierung des freigesetzten Hämoglobins gemessen. Das Ergebnis stellt der Quotient aus Lyse (L) und Denaturierung (D) L/D dar. Je kleiner der L/D-Wert ist, desto reizender ist die Substanz bzw. Formulierung einzustufen.

[1] = Table 1: single betaines, the smaller L/D, the more irritant
[2] = Table 1: single fatty acid amidopropyl betaines
[3] = Table 3: 10 % betaine + 5 % APG in water
[4] = Table 3: 10 % betaine + 5 % LSSDNa in water
[5] = Table 3: 10 % betaine + 5 % NaLSC in water

SMILES	L/D [1]	Denaturierung (D) [2]	Lyse (L) [2]	Denaturierung (D) [3]	L/D [3]	Lyse (L) [3]	Denaturierung (D) [4]	L/D [4]	Lyse (L) [4]	Denaturierung (D) [5]	L/D [5]	Lyse (L) [5]
CCCCCCCCCC(=O)NCCC[N+](C)(C)CC(=O)[O-] [C10-Betain]	>> 100	keine Hämolyse	keine Hämolyse	–	–	–	–	–	–	–	–	–
CCCCCCCCCCCCCC(=O)NCCC[N+](C)(C)CC(=O)[O-] [C14-Betain]	1,4	9,2	13	–	–	–	–	–	–	–	–	–
CCCCCCCCCCCCCCCC(=O)NCCC[N+](C)(C)CC(=O)[O-] [C16-Betain]	1,0	4,4	4,4	–	–	–	–	–	–	–	–	–
CCCCCCCCCCCC(=O)NCCC[N+](C)(C)CC(=O)[O-] [C12-Betain]	8,9	17	151	<1	>100	81	13	3,8	49	18	4,7	84
CCCCCCCC(=O)NCCC[N+](C)(C)CC(=O)[O-] [C8-Betain]	>> 100	keine Hämolyse	keine Hämolyse	–	–	–	–	–	–	–	–	–
